Measurements reported in patent US7872040B2, “Receptor blocker and vasodilator comprising indole derivative as active ingredient” (priority 2004, dated 2011).

Assays:
α2-adrenoceptor = experiment: Relaxation of clonidine-induced contraction of isolated rat thoracic aorta ring preparations (α2-receptor antagonistic and vasodilator effect); details: sample 10^-5 M; Wistar rat thoracic aorta rings contracted with clonidine (10^-7 M or 10^-6 M) in presence of L-NAME 10^-4 M; mean±standard error
Source text: (1) Preparation of Blood Vessel
Male Wistar rats were euthanized by cervical dislocation under ether anesthesia or without anesthesia and then exsanguinated by cutting the carotid arteries. Immediately thereafter, the thoracic aortae were isolated by thoracotomy. The isolated preparations were held in Krebs-Hepes solutions [mM: NaCl, 126.9; KCl, 5.9; CaCl2, 2.36; MgCl2, 1.18; Hepes, 10.03; glucose, 11.8 (pH=7.4)] gassed with O2 (100%). The connective tissues and adipose tissues were carefully removed under a stereoscopic microscope. Then, the aortic tissue was cut into ring preparations approximately 2 mm in length to use in the experiment. The vascular endothelium was not removed.
(2) Measurement of Muscle Contractile/Relaxant Response
The blood vessel preparations were held in an organ bath (UC-5TD, UFER™ Medical Instrument, Kyoto, Japan) containing 5 ml of Normal Tyrode's solution gassed with 95% O2-5% CO2. Two stainless hooks were used to suspend the preparations. Tension changes were recorded isometrically via tension transducers (T7-8-240, ORIENTEC Co., Ltd, Tokyo, Japan; and TB-611T, NIHON KOHDEN Corp., Tokyo, Japan) and amplifiers (AP-600G and AP-621G, NIHON KOHDEN Corp., Tokyo, Japan; and MSC-2, Labo Support Corporation, Osaka, Japan). Passive tension was set to the optimum tension of 2.0 g. The composition of the Normal Tyrode's solution was as follows: (mM): NaCl, 158.3; KCl, 4.0; CaCl2, 2.0; MgCl2, 1.05; NaH2PO4, 0.42; NaHCO3, 10.0; glucose, 5.6 (pH=7.4, 37±0.5° C.).
The preparations were then incubated for 60 to 90 minutes in Normal Tyrode's solution, which was replaced with 20-minute to 30-minute intervals. To start the experiment, the preparations were first allowed to contract with a high potassium solution (high-KCl, 80 mM KCl) [composition (mM): NaCl, 82.3; KCl, 80.0; CaCl2, 2.0; MgCl2, 1.05; NaH2PO4, 0.42; NaHCO3, 10.0; glucose, 5.6 (pH=7.4)] to confirm that the preparations normally contracted. Then, the preparations were washed with a Normal Tyrode's solution, and the experiment was started.
For the purpose of evaluating the potencies of indole derivatives tested, the artery preparations were stimulated with an α2-adrenoceptor agonist clonidine hydrochloride (Wako Pure Chemical Industries, Ltd., Osaka, Japan) (10^−7 M or 10^−6 M) in the presence of an NO synthase inhibitor N^G-nitro-L-arginine methyl ester (DOJNDO Laboratories, Kumamoto, Japan) (10^−4 M) to thereby induce continuous contraction. After developed tension reached a steady-sate level, samples (indole derivatives) (10^−5 M) were administered to the bath solution. After the relaxant effects of the samples reached the maximum levels, an α2-adrenoceptor antagonist yohimbine hydrochloride (Wako Pure Chemical Industries, Ltd., Osaka, Japan) (10^−5 M) was administered to the bath solution. Relaxant response to yohimbine hydrochloride (10^−5 M) and the height of contraction immediately before sample administration were defined as the maximum relaxation (=100%) and 0%, respectively, and the relaxant effect of the samples were expressed as percentages relative to the maximum relaxation to yohimbine hydrochloride (10^−5 M).
The indole derivatives (samples Nos. 1 to 23) were dissolved in 100% dimethyl sulfoxide at a concentration of 10^−2 M just before use and administered to a 5-mL organ bath for evaluation. All the other drugs were dissolved and diluted in distilled water.
The results were expressed as mean±standard error.

[1] = Clinical report: one test subject took sample No. 16 for 9 months and was followed up; format: in vivo, human
Method: A test subject was allowed to take the indole derivative (N-nonanoylindole-3-ethaneamine) of the sample No. 16 for 9 months, and followed up.
Test subject: healthy, 67 kg in body weight
Information before medication: non-smoking, approximately 180 ml of sake per week, well-balanced diets (meats, vegetables, and fishes) without fatty eating. The test subject has 100% white hair and goes to a barber shop once every five weeks. Their mustaches are sparse and remain in an unobtrusive growth state by shaving approximately once every two days. They are in the habit of jogging on Sunday. Muscle ache occurs about two days after the jogging and lasts for approximately 4 days. They feel insecure in erection (ED for approximately half a year).
Dosage and administration: two doses per day, administered at 1 mg around 12 p.m. and at 1 mg around 0 a.m.

[2] = after one month, 1 mg two doses per day

Compound	Reaction (%): relaxant effect relative to the maximum relaxation to yohimbine hydrochloride (10^-5 M) (α2-adrenoceptor)	further results
COc1ccc2[nH]cc(CCNC(C)=O)c2c1 [compound 1, N-acetyl-5-methoxyindole-3-ethaneamine, reference compound]	6.7 ± 6.7%	–
COc1ccc2c(c1)c(CCNC(C)=O)cn2C(C)=O [compound 2, N,1-diacetyl-5-methoxyindole-3-ethaneamine]	18.5 ± 9.8%	–
COc1ccc2[nH]cc(CCN(C(C)=O)C(C)=O)c2c1 [compound 3, N,N-diacetyl-5-methoxyindole-3-ethaneamine]	25.6 ± 7.5%	–
COc1ccc2[nH]cc(CCNC(C)=O)c2c1Br [compound 4, N-acetyl-4-bromo-5-methoxyindole-3-ethaneamine]	20.3 ± 4.6%	–
COc1ccc2[nH]c(Br)c(CCNC(C)=O)c2c1 [compound 5, N-acetyl-2-bromo-5-methoxyindole-3-ethaneamine]	43.1 ± 16.0%	–
COc1cc2c(CCNC(C)=O)c(Br)[nH]c2cc1Br [compound 6, N-acetyl-2,6-dibromo-5-methoxyindole-3-ethaneamine]	64.0 ± 4.1%	–
COc1ccc2[nH]c(Br)c(CCNC(C)=O)c2c1Br [compound 7, N-acetyl-2,4-dibromo-5-methoxyindole-3-ethaneamine]	73.5 ± 15.3%	–
COc1c(Br)cc2[nH]c(Br)c(CCNC(C)=O)c2c1Br [compound 8, N-acetyl-2,4,6-tribromo-5-methoxyindole-3-ethaneamine]	85.6 ± 12.0%	–
COc1c(Br)cc2c(c1Br)c(CCNC(C)=O)c(Br)n2C(C)=O [compound 9, N,1-diacetyl-2,4,6-tribromo-5-methoxyindole-3-ethaneamine]	97.6 ± 2.4%	–
O=C(NCCc1c[nH]c2ccccc12)C1CC1 [compound 10, N-cyclopropylcarbonylindole-3-ethaneamine]	21.4%	–
O=C(NCCc1cn(O)c2ccccc12)C1CC1 [compound 11, 1-hydroxy-N-cyclopropylcarbonylindole-3-ethaneamine]	15.7 ± 6.8%	–
CCCCC(=O)NCCc1c[nH]c2ccccc12 [compound 12, N-pentanoylindole-3-ethaneamine]	26.9 ± 11.4%	–
CCCCC(=O)NCCc1cn(O)c2ccccc12 [compound 13, 1-hydroxy-N-pentanoylindole-3-ethaneamine]	25.6 ± 6.0%	–
CCCCCCC(=O)NCCc1c[nH]c2ccccc12 [compound 14, N-heptanoylindole-3-ethaneamine]	70.0 ± 6.9%	–
CCCCCCC(=O)NCCc1cn(O)c2ccccc12 [compound 15, 1-hydroxy-N-heptanoylindole-3-ethaneamine]	66.2 ± 13.9%	–
CCCCCCCCC(=O)NCCc1c[nH]c2ccccc12 [compound 16, N-nonanoylindole-3-ethaneamine]	80.7 ± 2.5%	erection ([1]; after nine months): became equal to that in their newly-married days; hair regrowth ([1]; after nine months): approximately half the hairs in the whole head except for the left frontal part of the temporal region were black hairs; muscle ache after jogging ([1]; after nine months): rapidly disappeared in one day; skin tone and complexion ([1]; after nine months): improved; erection ([1]; after one month): considerably improved; memory ([1]; after one month): memory was improved; muscle ache after jogging ([1]; after one month): slight; growth of the black hairs [1, 2]: approximately 0.5 mm per day; hair regrowth [1, 2]: black hairs were observed to grow in the scalp of the frontal part of the parietal region that had no hair; erection ([1]; after three months): improved; hair regrowth ([1]; after three months): Many black hairs were observed to grow throughout the head except for the left frontal part of the temporal region; memory ([1]; after three months): memory and retentive powers were recovered; time until muscle ache after jogging disappeared ([1]; after three months): 2 days; duration of dilation of cutaneous and penile blood vessels ([1]; person, 1 mg two doses per day): approximately 10 hours
CCCCCCCCC(=O)NCCc1cn(O)c2ccccc12 [compound 17, 1-hydroxy-N-nonanoylindole-3-ethaneamine]	79.0 ± 13%	–
O=C(CCCc1c[nH]c2ccccc12)NC12CC3CC(CC(C3)C1)C2 [compound 18, N-adamantyl-4-(indole-3-yl)butaneamide]	58.6 ± 10.6%	–
O=C(CCCc1c[nH]c2ccccc12)NC12CC3CC(CC(C3)C1)C2 [compound 23, N-adamantyl-4-(indole-3-yl)butaneamide]	91.5 ± 1.32%	–
N-adamantyl-2-(1-hydroxyindole-3-yl)acetamide [compound 22]	100.0 ± 0.00%	–
N-adamantyl-2-(indole-3-yl)acetamide [compound 20]	64.2 ± 8.70%	–
N-adamantyl-3-(indole-3-yl)propaneamide [compound 19]	60.6 ± 20.7%	–
N-adamantyl-4-(1-hydroxyindole-3-yl)butaneamide [compound 21]	87.7 ± 8.53%	–
